We go through five compounds from patent publication US11629171B2, “Beta-hairpin peptidomimetics” (POLYPHOR AG, priority 2017, dated 2023).

Holding throughout (type): cell-based
Data set [1] has as its system human red blood cells (hRBC). Nature of the data set: Hemolysis. The conditions noted are these: red cells of human, 1 h, 200. An outline of the steps: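 Percent lysis of human red cells was derived from OD540 of the supernatant, referenced to 2% Triton X-100, after a 1 h, 37° C incubation of 20% (v/v) cells with 200 μg/mL peptide.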
Data set [2] concerns Klebsiella pneumoniae 968733. The conditions noted are these: 968733. An outline of the steps: (§1)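 Cation-adjusted MH-II broth, 0.002% polysorbate 80, inoculum near 10^6 CFU/mL. MIC read visually after 18-20 h, 35° C; units μg/mL.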
Data set [3] concerns Escherichia coli ATCC 25922. The conditions noted are these: ATCC 25922. Summed up: as §1
In data set [4] the test system is Klebsiella pneumoniae SSI #3010. Particulars: SSI #3010. An outline of the steps:
as §1

The test system of data set [5] is Enterobacter cloacae 848840. The conditions noted are these: 848840. An outline of the steps:
as §1

Another data set relates to Escherichia coli 926415. Particulars: 926415. An outline of the steps:
as §1

Data set [6] concerns Acinetobacter baumannii 872842. Particulars: 872842. An outline of the steps:
as §1

Data set [7] relates to Acinetobacter baumannii DSM 30008. The conditions noted are these: DSM 30008. Summed up:
as §1

Data set [8] concerns Pseudomonas aeruginosa ATCC 27853. The conditions noted are these: ATCC 27853. Summed up:
as §1

What is called MIC is the smallest concentration in the dilution series that meets the test's criterion for growth inhibition. Higher therefore signals a less susceptible organism.

Each structure is given as a SMILES string. In brackets after ≈: the same amount, converted by molar mass. Where a SMILES comes first, the peptide text is derived from it. Bridges are numbered along the chain shown (N, C = ends). Roman numbers before positions name the chains, in order. [ ]: non-standard residue; d: D form. Leu(3R-OH) = CC(C)[C@@H](O)[C@H](N)C(=O)O; Pen = CC(C)(S)[C@H](N)C(=O)O; Tle = CC(C)(C)[C@H](N)C(=O)O; dDab = NCC[C@@H](N)C(=O)O; hSer = N[C@@H](CCO)C(=O)O; Dab = NCC[C@H](N)C(=O)O; Dap = NC[C@H](N)C(=O)O

For `CC(=O)N[C@@H](CCN)C(=O)N[C@@H](CC(C)C)C(=O)N[C@H]1CSSC[C@@H](C(=O)N[C@H](C(N)=O)C(C)C)NC(=O)[C@H](C(C)(C)C)NC(=O)[C@@H]2CSSC[C@H](NC(=O)[C@H](Cc3ccc(O)cc3)NC1=O)C(=O)N[C@@H](CCC(=O)N[C@@H](CCN)C(=O)N[C@H](C(=O)N[C@@H](CN)C(=O)N[C@H]1CCNC(=O)[C@H]([C@@H](C)O)NC(=O)[C@H](CCN)NC(=O)[C@H](CCN)NC(=O)[C@H](CC(C)C)NC(=O)[C@@H](CC(C)C)NC(=O)[C@H](CCN)NC1=O)[C@@H](C)O)C(=O)N[C@H](CCN)C(=O)N[C@@H](CCN)C(=O)N[C@@H](Cc1c[nH]c3ccccc13)C(=O)N2` [Ex. 234] (I: Ac-[Dab]LCYCE[dDab][Dab]WC[Tle]CV-NH2 / II: [Dab]T[Dap][Dab][Dab][dL]L[Dab][Dab]T; disulfide I:3-I:12, I:5-I:10; amide I:6-II:N; lactam II:4-II:C), in data set [1], the “Hemolysis at 200 μg/mL” value was 9%. Besides, the MIC is 1 µg/mL (≈ 0.389 µM) in data set [2]; 0.125 µg/mL (≈ 0.0487 µM) in data set [3]; 0.25 µg/mL (≈ 0.0973 µM) in data set [4]; 0.5 µg/mL (≈ 0.195 µM) in data set [5]; 0.25 µg/mL (≈ 0.0973 µM) against Escherichia coli 926415; 0.25 µg/mL (≈ 0.0973 µM) in data set [6]. In addition, the results for the minimum inhibitory concentration (MIC) in [7] and in [8] were 0.25 µg/mL (≈ 0.0973 µM) and 0.5 µg/mL (≈ 0.195 µM), respectively.
Take `CC(=O)N[C@H](C(=O)N[C@H]1CSSC[C@@H](C(=O)N[C@@H](CO)C(N)=O)NC(=O)[C@H](C(C)(C)C)NC(=O)[C@H](CCC(=O)O)NC(=O)[C@H](Cc2c[nH]c3ccccc23)NC(=O)[C@H](CCO)NC(=O)[C@@H](CCN)NC(=O)[C@H](CCC(=O)N[C@@H](CCN)C(=O)N[C@H](C(=O)N[C@@H](CN)C(=O)N[C@H]2CCNC(=O)[C@H]([C@@H](C)O)NC(=O)[C@H](CCN)NC(=O)[C@H](CCN)NC(=O)[C@H](CC(C)C)NC(=O)[C@@H](CC(C)C)NC(=O)[C@H](CCN)NC2=O)[C@@H](C)O)NC(=O)[C@H](CCCCN)NC(=O)[C@H](Cc2ccc(O)cc2)NC1=O)C(C)C` [Ex. 159] (I: Ac-VCYKE[dDab][hSer]WE[Tle]CS-NH2 / II: [Dab]T[Dap][Dab][Dab][dL]L[Dab][Dab]T; disulfide I:2-I:11; amide I:5-II:N; lactam II:4-II:C): the “Hemolysis at 200 μg/mL” value in [1] is reported as below 1%. In addition, the MIC is 0.5 µg/mL (≈ 0.2 µM) in data set [2]; 0.0625 µg/mL (≈ 0.025 µM) in data set [3]; 0.125 µg/mL (≈ 0.0501 µM) in data set [4]; 0.125 µg/mL (≈ 0.0501 µM) in [5]; 0.25 µg/mL (≈ 0.1 µM) against Escherichia coli 926415; 0.25 µg/mL (≈ 0.1 µM) in data set [6]. The minimum inhibitory concentration (MIC) stood at 0.0625 µg/mL (≈ 0.025 µM) in data set [7] and 0.125 µg/mL (≈ 0.0501 µM) in data set [8].
`CC(=O)N[C@@H](CCN)C(=O)N[C@H](C(=O)N[C@H](C(=O)N[C@@H](Cc1ccc(O)cc1)C(=O)N[C@H]1CSSC[C@@H](C(=O)N[C@H](C(=O)N[C@@H](C)C(=O)N[C@@H](CO)C(N)=O)C(C)(C)C)NC(=O)[C@H](Cc2c[nH]c3ccccc23)NC(=O)[C@H](CO)NC(=O)[C@@H](CCN)NC(=O)[C@H](CCC(=O)N[C@@H](CCN)C(=O)N[C@H](C(=O)N[C@@H](CN)C(=O)N[C@H]2CCNC(=O)[C@H]([C@@H](C)O)NC(=O)[C@H](CCN)NC(=O)[C@H](CCN)NC(=O)[C@H](CC(C)C)NC(=O)[C@@H](CC(C)C)NC(=O)[C@H](CCN)NC2=O)[C@@H](C)O)NC1=O)[C@@H](C)O)C(C)C` [Ex. 237] (I: Ac-[Dab]VTYCE[dDab]SWC[Tle]AS-NH2 / II: [Dab]T[Dap][Dab][Dab][dL]L[Dab][Dab]T; disulfide I:5-I:10; amide I:6-II:N; lactam II:4-II:C): the “Hemolysis at 200 μg/mL” value in [1] was below 1%. The MIC in data set [2] came to 0.5 µg/mL (≈ 0.2 µM); in [3], 0.0625 µg/mL (≈ 0.025 µM); in [4] it was 0.0625 µg/mL (≈ 0.025 µM); in data set [5], 0.125 µg/mL (≈ 0.05 µM); against Escherichia coli 926415, 0.25 µg/mL (≈ 0.1 µM); in [6], 0.125 µg/mL (≈ 0.05 µM). Moreover, the values for the MIC in data set [7] and in data set [8] were 0.03125 µg/mL (≈ 0.0125 µM) and 0.125 µg/mL (≈ 0.05 µM), respectively.
With `CC(=O)N[C@H](C(=O)N[C@H](C(=O)N[C@@H](Cc1ccc(O)cc1)C(=O)N[C@H]1CSSC(C)(C)[C@@H](C(=O)N[C@H](C(=O)N[C@@H](CCC(=O)O)C(=O)N[C@H](C(N)=O)[C@@H](C)O)C(C)(C)C)NC(=O)[C@H](Cc2c[nH]c3ccccc23)NC(=O)[C@H](CCN)NC(=O)[C@@H](CCN)NC(=O)[C@H](CCC(=O)N[C@@H](CCN)C(=O)N[C@H](C(=O)N[C@@H](CN)C(=O)N[C@H]2CCNC(=O)[C@H]([C@@H](C)O)NC(=O)[C@H](CCN)NC(=O)[C@H](CCN)NC(=O)[C@H]([C@H](O)C(C)C)NC(=O)[C@@H](CC(C)C)NC(=O)[C@H](CCN)NC2=O)[C@@H](C)O)NC1=O)[C@@H](C)O)C(C)C` [Ex. 225] (I: Ac-VTYCE[dDab][Dab]W[Pen][Tle]ET-NH2 / II: [Dab]T[Dap][Dab][Dab][dL][Leu(3R-OH)][Dab][Dab]T; disulfide I:4-I:9; amide I:5-II:N; lactam II:4-II:C), the “Hemolysis at 200 μg/mL” value in data set [1] is below 1%. For the same compound, the minimal inhibitory concentration (MIC) in [2] is 1 µg/mL (≈ 0.396 µM); in data set [3], 0.0625 µg/mL (≈ 0.0247 µM); in data set [4], 0.0625 µg/mL (≈ 0.0247 µM); in data set [5] it was 0.125 µg/mL (≈ 0.0495 µM); with Escherichia coli 926415 it was 0.25 µg/mL (≈ 0.0989 µM); in data set [6], 0.25 µg/mL (≈ 0.0989 µM). Further, the minimal inhibitory concentration (MIC) in data set [7] and in data set [8] was 0.125 µg/mL (≈ 0.0495 µM) throughout.
For the compound `CC(=O)N[C@H](C(=O)N[C@H]1CSSC[C@@H](C(=O)N[C@@H](CO)C(N)=O)NC(=O)[C@H](C(C)C)NC(=O)[C@H](CO)NC(=O)[C@H](Cc2c[nH]c3ccccc23)NC(=O)[C@H](CCC(=O)N[C@@H](CCN)C(=O)N[C@H](C(=O)N[C@@H](CN)C(=O)N[C@H]2CCNC(=O)[C@H]([C@@H](C)O)NC(=O)[C@H](CCN)NC(=O)[C@H](CCN)NC(=O)[C@H](CC(C)C)NC(=O)[C@@H](CC(C)C)NC(=O)[C@H](CCN)NC2=O)[C@@H](C)O)NC(=O)[C@@H](CCN)NC(=O)CNC(=O)[C@H](CO)NC(=O)[C@H](Cc2ccc(O)cc2)NC1=O)C(C)C` [Ex. 357] (I: Ac-VCYSG[dDab]EWSVCS-NH2 / II: [Dab]T[Dap][Dab][Dab][dL]L[Dab][Dab]T; disulfide I:2-I:11; amide I:7-II:N; lactam II:4-II:C), the “Hemolysis at 200 μg/mL” value in [1] was below 1%. Also, the MIC in [2] was determined as 0.5 µg/mL (≈ 0.212 µM); in data set [5] it was 0.125 µg/mL (≈ 0.0531 µM); in the data set with Escherichia coli 926415 it was 0.5 µg/mL (≈ 0.212 µM); in data set [6] it was 0.25 µg/mL (≈ 0.106 µM). The “Escherichia coli ATCC 25922 MIC” value in data set [3] was 0.0625 µg/mL. In addition, in data set [4], the “Klebsiella pneumoniae SSI #3010 MIC” value amounted to 0.125 µg/mL. Besides, the “Acinetobacter baumannii DSM 30008 MIC” value in data set [7] turned out to be 0.0625 µg/mL. Moreover, in data set [8], the “Pseudomonas aeruginosa ATCC 27853 MIC” value came to 0.25 µg/mL.
